The results in this text go back to patent US11572590B2, “Methods for evaluating tumor cell spheroids using 3D microfluidic cell culture device” (Dana-Farber Cancer Institute, Inc., priority 2017, dated 2023).

Where two headings read alike, the source gives them in different places.

The inhibition is the share of the control response that was lost under treatment.

Experiment [1] has as its target off-target kinases (Homo sapiens, UniProt P06241). Nature of the experiment: SelectScreen Kinase Profiling, single point inhibition and IC50 for off-target kinases. It is filed as biochemical. On the set-up: other: FYN A; 1000 μM. The conditions noted are these: FYN A, LanthaScreen Binding. The method, then: (§1) Biochemical single point inhibition and IC50 concentrations for TBK1, IKKε (IKBKE), and off-target kinases were determined at ThermoFisher Scientific using SelectScreen Kinase Profiling Services (Madison, Wis., USA) (Tables S4A and S4B-1-7). To determine cellular potency, the human colorectal cancer carcinoma cell line HCT116 (ATCC, Manassas, Va.) was maintained in T175 flasks in complete RPMI medium; RPMI 1640 supplemented with 10% FBS, 1× Penicillin-Streptomycin solution and 1×MEM (non-essential amino acids). HCT116 cells were grown to 90-95% confluency in T175 flasks containing complete RPMI medium and transfected in bulk using Lipofectamine 2000 (Invitrogen, Carlsbad, Calif.) with 70 μg of ISG54-luciferase reporter plasmid (Elim Biopharmaceuticals Inc., Hayward, Calif.). The reporter plasmid contains a luciferase gene expression cassette under the transcriptional regulation of the promoter of the human interferon stimulated gene 54 (ISG54). […] The assay plates were incubated for 5 hours at 37° C., followed by addition of One-Glo luciferase firefly reagent (Promega, Madison, Wis.) at 1:1 volume/well and luminescence was measured in an EnVision Multilabel Plate Reader (PerkinElmer, Santa Clara, Calif.). The EC50 values were calculated from the fit of the dose-response curves to a four-parameter equation. […]
(In general: In TR-FRET formats the signal depends on donor and acceptor labels being close together.)

Experiment [2] has as its system human CD4+ and CD8+ T cells. Nature of the experiment: IL-2 secretion by anti-CD3/anti-CD28 stimulated T cells. It is filed as cell-based. The conditions noted are these: dose-titration, 24 hours. As to the method:
Freshly isolated human CD4+ and CD8+ T cells were obtained from AllCells (Alameda, Calif., USA). Cells were spun down and resuspended in serum free Xvivo15 media (Lonza Walkersville, Inc., Chicago, Ill., USA) supplemented with 5 ng/mL […] and incubated overnight at 37° C. Cells were plated on anti-CD3 coated plates (5 μg/mL OKT3, eBioscience, Dallas, Tex., USA, overnight) with 2 μg/mL anti-CD28 (eBioscience, Dallas, Tex., USA). Cells are treated in replicate plates with a dose-titration of Compound 1 for 24 hours for IL-2 and 96 hours for IFNγ. IL-2 and IFNγ in the supernatant were measured using single- or multi-plex immunoassay (Mesoscale Discovery, Rockville, Md., USA). Jurkat T cell leukemia cells (clone E61 obtained from ATCC) plated on anti-CD3 coated plates were treated with a dose titration of Compound 1 for 24 hours. IL-2 in the supernatant was measured as described above.

Experiment [3] has as its target off-target kinases (Homo sapiens, UniProt P05771). The experiment in a line: SelectScreen Kinase Profiling, single point inhibition and IC50 for off-target kinases. It is filed as biochemical. On the set-up: other: PRKCB2 (PKC beta II); ZLYTE; ATP Km app; 1000 μM. The conditions noted are these: PRKCB2 (PKC beta II), ZLYTE, ATP Km app. The method, then:
as §1, with “(ISG54). Transfection of the cells was allowed to take place for 6 hours, after which the cells were harvested by treatment with 0.25% trypsin EDTA (Corning Inc., Corning, N.Y.). Trypsinized cells were added to 384-well poly-d-lysine treated black clear bottom tissue culture assay plates (Greiner Bio-One GmbH, Kremsmünster, Austria) at a density of 20,000 cells/well in 80 μL of complete RPMI medium and incubated overnight. After 16-18 hours post-transfection, the assay plates were washed with PBS (Corning Inc., Corning, N.Y.), followed by addition of 80 μL/well of serum-free RPMI 1640 medium containing 1× Penicillin-Streptomycin solution, 1×MEM and 350 nL of DMSO or titrations of Compound 1.” for “(ISG54).”

In experiment [4] the target is off-target kinases (Homo sapiens, UniProt P12931). Described as above. It is filed as biochemical. Details: other: SRC N1; 1000 μM; ATP Km app; ZLYTE. The settings on record: SRC N1, ATP Km app, ZLYTE. The method, then: as §1, with “(ISG54). Transfection of the cells was allowed to take place for 6 hours, after which the cells were harvested by treatment with 0.25% trypsin EDTA (Corning Inc., Corning, N.Y.). Trypsinized cells were added to 384-well poly-d-lysine treated black clear bottom tissue culture assay plates (Greiner Bio-One GmbH, Kremsmünster, Austria) at a density of 20,000 cells/well in 80 μL of complete RPMI medium and incubated overnight. After 16-18 hours post-transfection, the assay plates were washed with PBS (Corning Inc., Corning, N.Y.), followed by addition of 80 μL/well of serum-free RPMI 1640 medium containing 1× Penicillin-Streptomycin solution, 1×MEM and 350 nL of DMSO or titrations of Compound 1.” for “(ISG54).”
Chain of off-target kinases (Homo sapiens, UniProt P12931) (P12931 1-542 isoform P12931-2): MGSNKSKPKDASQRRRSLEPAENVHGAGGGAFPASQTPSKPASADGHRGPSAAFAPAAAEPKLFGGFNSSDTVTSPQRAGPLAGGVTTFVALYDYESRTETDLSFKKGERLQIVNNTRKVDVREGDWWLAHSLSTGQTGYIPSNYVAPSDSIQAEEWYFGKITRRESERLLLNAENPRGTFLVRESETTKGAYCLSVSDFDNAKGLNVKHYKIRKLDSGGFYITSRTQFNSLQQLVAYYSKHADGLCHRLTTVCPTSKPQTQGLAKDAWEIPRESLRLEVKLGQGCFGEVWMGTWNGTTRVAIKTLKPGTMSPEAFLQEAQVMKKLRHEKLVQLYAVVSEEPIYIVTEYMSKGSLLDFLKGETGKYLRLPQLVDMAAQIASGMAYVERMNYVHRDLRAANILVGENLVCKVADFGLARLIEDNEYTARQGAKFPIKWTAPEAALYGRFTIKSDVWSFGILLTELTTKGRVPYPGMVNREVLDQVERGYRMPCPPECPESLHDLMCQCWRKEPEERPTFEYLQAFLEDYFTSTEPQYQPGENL

Chain of off-target kinases (Homo sapiens, UniProt P05771) (P05771 1-673 isoform P05771-2): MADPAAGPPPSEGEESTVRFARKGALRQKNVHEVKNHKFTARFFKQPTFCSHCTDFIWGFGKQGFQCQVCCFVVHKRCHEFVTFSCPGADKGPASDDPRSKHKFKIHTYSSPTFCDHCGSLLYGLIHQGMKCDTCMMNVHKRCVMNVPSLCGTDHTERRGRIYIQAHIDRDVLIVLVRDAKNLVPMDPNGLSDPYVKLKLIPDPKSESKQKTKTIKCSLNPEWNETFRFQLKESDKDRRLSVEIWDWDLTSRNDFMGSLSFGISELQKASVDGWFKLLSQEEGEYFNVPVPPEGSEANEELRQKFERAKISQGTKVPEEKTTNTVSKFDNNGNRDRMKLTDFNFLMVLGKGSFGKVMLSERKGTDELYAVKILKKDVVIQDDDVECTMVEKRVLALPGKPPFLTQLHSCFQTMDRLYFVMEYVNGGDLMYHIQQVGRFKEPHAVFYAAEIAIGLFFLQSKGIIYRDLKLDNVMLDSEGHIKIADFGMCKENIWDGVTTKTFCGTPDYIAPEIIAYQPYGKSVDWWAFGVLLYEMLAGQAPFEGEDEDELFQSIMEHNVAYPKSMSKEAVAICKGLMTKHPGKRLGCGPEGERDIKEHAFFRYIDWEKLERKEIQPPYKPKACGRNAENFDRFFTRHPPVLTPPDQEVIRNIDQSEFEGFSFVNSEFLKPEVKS
Chain of off-target kinases (Homo sapiens, UniProt P06241) (P06241 whole entry): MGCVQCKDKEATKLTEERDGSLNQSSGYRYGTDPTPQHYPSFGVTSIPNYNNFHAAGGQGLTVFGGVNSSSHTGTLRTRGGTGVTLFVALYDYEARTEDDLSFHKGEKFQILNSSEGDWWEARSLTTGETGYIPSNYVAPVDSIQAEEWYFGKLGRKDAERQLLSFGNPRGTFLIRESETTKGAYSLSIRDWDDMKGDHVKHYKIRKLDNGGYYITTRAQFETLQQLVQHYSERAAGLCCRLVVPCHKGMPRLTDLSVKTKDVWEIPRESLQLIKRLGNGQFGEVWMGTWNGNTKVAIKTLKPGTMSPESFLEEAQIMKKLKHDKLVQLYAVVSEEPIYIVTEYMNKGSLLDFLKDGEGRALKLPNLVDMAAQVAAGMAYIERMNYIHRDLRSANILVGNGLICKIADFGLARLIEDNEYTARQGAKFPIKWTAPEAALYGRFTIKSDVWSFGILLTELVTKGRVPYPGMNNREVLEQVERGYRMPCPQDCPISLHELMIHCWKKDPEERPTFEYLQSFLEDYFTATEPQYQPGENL

Turning to `N#Cc1cc(-c2ncnc(Nc3ccc(N4CCN(C5COC5)CC4)cc3)n2)ccc1OC1CCOCC1` [Compound 1, 5-(4-((4-(4-(oxetan-3-yl)piperazin-1-yl)phenyl)amino)-1,3,5-triazin-2-yl)-2-((tetrahydro-2H-pyran-4-yl)oxy)benzonitrile], the inhibition worked out at 16% on off-target kinases [1] (read-out: % Inhibition 1); 21% at off-target kinases [1] (read-out: % Inhibition 2); 12% on off-target kinases [3] (read-out: % Inhibition 1); 8% on off-target kinases [3] (read-out: % Inhibition 2); 10% on off-target kinases [3] (read-out: % Inhibition Avg); 54% at off-target kinases [4] (read-out: % Inhibition 1). For the same compound, the inhibition stood at 60% on off-target kinases [4] (read-out: % Inhibition 2) and 57% at off-target kinases [4] (read-out: % Inhibition Avg). Moreover, the “secretion of IL-2 from purified CD4+ and CD8+ T cells” value in experiment [2] is “enhanced secretion”.
